Measurements from patent publication US11806342B2, “Diiodohydroxyquinoline for the treatment of clostridium difficile infection” (Purdue Research Foundation, priority 2019, dated 2023).
Values after ≈ are worked out from the molar mass of the structure shown.

Key:
Format in all cases: cell-based, Clostridium difficile
C. difficile ATCC 43255 [1] = experiment: Initial screening of antiparasitic drugs, broth microdilution MIC; conditions: Clostridioides difficile, ATCC43255
Procedure: C. difficile strains were grown anaerobically on brain heart infusion supplemented (BHIS) agar plates at 37° C. for 48 hours. Afterwards, a bacterial solution equivalent to 0.5 McFarland standard was prepared and diluted in (BHIS) broth to achieve a bacterial concentration of about 5×10^5 CFU/mL. Drugs were added and serially diluted along the plates. Plates were then, incubated anaerobically at 37° C. for 48 hours. MICs reported in Table (1) are the minimum concentrations of the drugs that could completely suppress the visual growth of bacteria.

C. difficile ATCC 43598 = experiment: MIC and MBC, broth microdilution; conditions: Clostridioides difficile, ATCC43598
Procedure: (§1) MIC50 and MIC90 are the minimum concentration of each agent that inhibited growth of 50% and 90% of the tested isolates, respectively. The minimum bactericidal concentration (MBC) of these drugs was tested by plating 5 μL from wells with no growth onto BHIS agar plates. The MBC was categorized as the lowest concentration that reduced bacterial growth by 99.9% MIC50 and MIC90 are the minimum concentration of each agent that inhibited the growth of 50% and 90% of the tested isolates, respectively. The minimum bactericidal concentration (MBC) of these drugs was tested by plating 5 μL from wells with no growth onto BHIS agar plates. The MBC was categorized as the lowest concentration that reduced bacterial growth by 99.9% [29-31].

C. difficile ATCC 700057 = experiment: MIC and MBC, broth microdilution; conditions: Clostridioides difficile, ATCC700057
Procedure: as §1

C. difficile ATCC 9689 = experiment: MIC and MBC, broth microdilution; conditions: Clostridioides difficile, ATCC9689
Procedure: as §1

[2] = system: C. difficile ATCC BAA-1870; experiment: MIC and MBC, broth microdilution; conditions: Clostridioides difficile, ATCCBAA1870
Procedure: as §1

C. difficile HM-89 = experiment: MIC and MBC, broth microdilution; conditions: Clostridioides difficile, HM89
Procedure: as §1

C. difficile I1 = experiment: MIC and MBC, broth microdilution; conditions: Clostridioides difficile, I1
Procedure: as §1

C. difficile I2 = experiment: MIC and MBC, broth microdilution; conditions: Clostridioides difficile, I2
Procedure: as §1

C. difficile I4 = experiment: MIC and MBC, broth microdilution; conditions: Clostridioides difficile, I4
Procedure: as §1

C. difficile NR-49277 [3] = experiment: MIC and MBC, broth microdilution; conditions: Clostridioides difficile, NR49277
Procedure: as §1

C. difficile NR-49281 = experiment: MIC and MBC, broth microdilution; conditions: Clostridioides difficile, NR49281
Procedure: as §1

C. difficile NR-49284 = experiment: MIC and MBC, broth microdilution; conditions: Clostridioides difficile, NR49284
Procedure: as §1

C. difficile NR-49286 = experiment: MIC and MBC, broth microdilution; conditions: Clostridioides difficile, NR49286
Procedure: as §1

C. difficile NR-49290 = experiment: MIC and MBC, broth microdilution; conditions: Clostridioides difficile, NR49290
Procedure: as §1

C. difficile P11 = experiment: MIC and MBC, broth microdilution; conditions: Clostridioides difficile, P11
Procedure: as §1

C. difficile P13 = experiment: MIC and MBC, broth microdilution; conditions: Clostridioides difficile, P13
Procedure: as §1

C. difficile P1 = experiment: MIC and MBC, broth microdilution; conditions: Clostridioides difficile, P1
Procedure: as §1

C. difficile P24 = experiment: MIC and MBC, broth microdilution; conditions: Clostridioides difficile, P24
Procedure: as §1

C. difficile P2 = experiment: MIC and MBC, broth microdilution; conditions: Clostridioides difficile, P2
Procedure: as §1

C. difficile P7 = experiment: MIC and MBC, broth microdilution; conditions: Clostridioides difficile, P7
Procedure: as §1

C. difficile P8 = experiment: MIC and MBC, broth microdilution; conditions: Clostridioides difficile, P8
Procedure: as §1

C. difficile ATCC 43255 [4] = experiment: Toxin A and B production inhibition, ELISA; conditions: C. difficile ATCC 43255, ¼×MIC and ½×MIC
Procedure: (§2) To investigate DIHQs toxin production inhibitory activity, toxin A and toxin B levels were measured as described previously. […] An aliquot from each tube was diluted and plated on BHIS agar plates and incubated anaerobically at 37° C. for 24 hours to detect the bacterial count. The total concentration of C. difficile toxin A and B was measured in the supernatant of each tube using enzyme linked immunosorbent assay (ELISA) kit (tgc BIOMICS, Dunwoody, GA) following the manufacturer's instructions. The (OD450-OD620) values, corresponding to the toxin concentration, were measured for DIHQ and control drugs.

[5] = system: C. difficile ATCC BAA-1870; experiment: Toxin A and B production inhibition, ELISA; conditions: C. difficile ATCC BAA-1870, ¼×MIC and ½×MIC
Procedure: as §2

C. difficile NR-49277 [6] = experiment: Toxin A and B production inhibition, ELISA; conditions: C. difficile NR-49277, ¼×MIC and ½×MIC
Procedure: as §2

With CN[C@H](CC(C)C)C(=O)N[C@H]1C(=O)N[C@@H](CC(N)=O)C(=O)N[C@H]2C(=O)N[C@H]3C(=O)N[C@H](C(=O)N[C@H](C(=O)O)c4cc(O)cc(O)c4-c4cc3ccc4O)[C@H](O)c3ccc(c(Cl)c3)Oc3cc2cc(c3O[C@@H]2O[C@H](CO)[C@@H](O)[C@H](O)[C@H]2O[C@H]2C[C@](C)(N)[C@H](O)[C@H](C)O2)Oc2ccc(cc2Cl)[C@H]1O [Vancomycin, vancomycin] the MIC (C. difficile ATCC 43255 [1]) was 1 µg/mL (≈ 0.69 µM), the MBC (C. difficile ATCC 43598) was 1 µg/mL (≈ 0.69 µM) and the MIC (C. difficile ATCC 43598) was 1 µg/mL (≈ 0.69 µM). The MBC (C. difficile ATCC 700057) was 0.5 µg/mL (≈ 0.345 µM), the MIC (C. difficile ATCC 700057) was 0.5 µg/mL (≈ 0.345 µM) and the MBC (C. difficile ATCC 9689) was 1 µg/mL (≈ 0.69 µM). For the same molecule, the MIC (C. difficile ATCC 9689) was 0.5 µg/mL (≈ 0.345 µM), the MBC [2] was 1 µg/mL (≈ 0.69 µM) and the MIC [2] was 1 µg/mL (≈ 0.69 µM). It also gave an MBC (C. difficile HM-89) of 1 µg/mL (≈ 0.69 µM), an MIC (C. difficile HM-89) of 1 µg/mL (≈ 0.69 µM) and an MBC (C. difficile I1) of 1 µg/mL (≈ 0.69 µM). It also gave an MIC (C. difficile I1) of 1 µg/mL (≈ 0.69 µM), an MBC (C. difficile I2) of 1 µg/mL (≈ 0.69 µM) and an MIC (C. difficile I2) of 1 µg/mL (≈ 0.69 µM). It also gave an MBC (C. difficile I4) of 0.5 µg/mL (≈ 0.345 µM), an MIC (C. difficile I4) of 0.5 µg/mL (≈ 0.345 µM) and an MBC (C. difficile NR-49277 [3]) of 1 µg/mL (≈ 0.69 µM). It also gave an MIC (C. difficile NR-49277 [3]) of 1 µg/mL (≈ 0.69 µM), an MBC (C. difficile NR-49281) of 0.25 µg/mL (≈ 0.173 µM) and an MIC (C. difficile NR-49281) of 0.25 µg/mL (≈ 0.173 µM). The MBC (C. difficile NR-49284) was 0.5 µg/mL (≈ 0.345 µM), the MIC (C. difficile NR-49284) was 0.25 µg/mL (≈ 0.173 µM) and the MBC (C. difficile NR-49286) was 0.5 µg/mL (≈ 0.345 µM). It also gave an MIC (C. difficile NR-49286) of 0.25 µg/mL (≈ 0.173 µM), an MBC (C. difficile NR-49290) of 1 µg/mL (≈ 0.69 µM) and an MIC (C. difficile NR-49290) of 0.5 µg/mL (≈ 0.345 µM). It also gave an MBC (C. difficile P11) of 1 µg/mL (≈ 0.69 µM), an MIC (C. difficile P11) of 1 µg/mL (≈ 0.69 µM) and an MBC (C. difficile P13) of 0.5 µg/mL (≈ 0.345 µM). For the same molecule, the MIC (C. difficile P13) was 0.5 µg/mL (≈ 0.345 µM), the MBC (C. difficile P1) was 0.5 µg/mL (≈ 0.345 µM) and the MIC (C. difficile P1) was 0.5 µg/mL (≈ 0.345 µM). For the same molecule, the MBC (C. difficile P24) was 0.5 µg/mL (≈ 0.345 µM), the MIC (C. difficile P24) was 0.5 µg/mL (≈ 0.345 µM) and the MBC (C. difficile P2) was 1 µg/mL (≈ 0.69 µM). The MIC (C. difficile P2) was 1 µg/mL (≈ 0.69 µM), the MBC (C. difficile P7) was 0.5 µg/mL (≈ 0.345 µM) and the MIC (C. difficile P7) was 0.5 µg/mL (≈ 0.345 µM). For the same molecule, the MBC (C. difficile P8) was 1 µg/mL (≈ 0.69 µM), the MIC (C. difficile P8) was 1 µg/mL (≈ 0.69 µM) and the “toxin inhibition (in words)” value (C. difficile ATCC 43255 [4]) was “No toxin inhibition”. For the same molecule, the “toxin inhibition (in words)” value [5] was “No toxin inhibition” and the “toxin inhibition (in words)” value (C. difficile NR-49277 [6]) was “No toxin inhibition”.
